Experiments:
[1] = type: physicochemical
Description: Gemäß vorliegender Anmeldung soll der Wirkstoff subcutan in einer Dosis von 0,1 bis 20 mg appliziert werden können. Die wässrigen Lösungen des Dekapeptids sind instabil, eine Autoklavierung im Endbehälter ist nicht möglich. […] Um eine injizierbare Lösung zu erhalten, war daher die Entwicklung eines Lyophilisats erforderlich. Allerdings ist die Menge des Wirkstoffes in der zu lyophilisierenden Lösung so gering, dass bei niedrigen Wirkstoffkonzentrationen nur ein lockerer Flaum an der Glaswand der Ampulle nach der Trocknung der hilfsstofffreien Lösung resultiert, der mit dem zur Sterilisierung benutzten Wasserdampfstrom aus dem Vial ausgetragen wird. Es ist also erforderlich, einen Gerüstbildner einzusetzen, der einen stabilen Kuchen bildet. Bei hohen Konzentrationen kann auf diesen Hilfsstoff verzichtet werden. Als Gerüstbildner kommen folgende Hilfsstoffe infrage: Hexite, insbesondere Mannit, Glucit, Sorbit, wie D-Sorbit, Dulcit, Allit, Altrit (zum Beispiel D- und L-Altrit), Idit (zum Beispiel D- und L-Idit), deren optisch aktive Formen (D- beziehungsweise L-Formen) sowie die entsprechenden Racemate. Insbesondere wird Mannit, wie D-Mannit, L-Mannit, DL-Mannit, Sorbit und/oder Dulcit verwendet, und zwar hiervon vorzugsweise D-Mannit. Als Hexit können auch Mischungen der genannten Hexite verwendet werden, zum Beispiel Mischungen von Mannit und Sorbit und/oder Dulcit. […]

[2] = Solubility and hydrolytic stability in acetic acid; type: physicochemical
Source text: Überraschenderweise stellte sich nun heraus, daß man Cetrorelix in 30 %iger VolumenNolumen Essigsäure gut lösen kann. Diese Lösung wird anschließend auf eine Endkonzentration von 3 % Cetrorelix mit Wasser für Injektionszwecke aufgefüllt und Mannit hinzugegeben. […] Lösungen, die nach dieser Methode hergestellt werden, […]

[3] = tested on: endogene Hormonproduktion (LH-FSH, Estradiol); type: in vivo, Patientinnen
Source text: Es hat sich nun herausgestellt, daß der Antagonist Cetrorelix gerade bei dieser Behandlung folgende Vorteile aufweist:
Um eine totale Suppression zu erreichen, genügen bei der Behandlung mit Cetrorelix eine Behandlungsdauer von 5 Tagen. […] Darüber hinaus läßt sich in der 2. Therapiephase, der Ovulationsauslösephase, HMG einsparen. Dies stellt einen nicht unbeträchtlichen Kostenvorteil dieser in-vitro-Fertilisationsbehandlung dar. Die in-vitro-Fertilisation wird beispielsweise beim Vorliegen einer Tubenanomalie eingesetzt. Für diese Therapie ist es notwendig, den Zyklus genau zu kontrollieren und den Zeitpunkt der Ovulation möglichst genau festzulegen. Bisher wurde dies nur eingeschränkt erreicht, da durch Stimulation mit HMG/HCG der präovulatorische LH-Anstieg oft zu früh auftrat oder nicht lange genug aufrechterhalten wurde. Es ist jedoch von entscheidender Bedeutung für den Behandlungserfolg, diesen verfrühten Anstieg zu verhindern, um den Befruchtungszeitpunkt genau festlegen zu können. Dadurch wird die körperliche und psychische Belastung der Patientinnen reduziert und die Kliniklogistik optimal eingesetzt. […]

## Cetrorelix
[1]
  Stabilität der wässrigen Lösungen: instabil
[1]; pharmacopoeial sterilisation (autoclaving in final container)
  Verhalten unter arzneibuchüblicher Sterilisation: neigt unter arzneibuchüblicher Sterilisation zur Zersetzung
[2]; acid medium (acetic acid solution)
  Hydrolyse der endständigen Amidgruppe: nicht festgestellt
[2]; in 30 % (volume/volume) acetic acid
  Löslichkeit: gut lösen
[3]; female patients, treatment of infertility
  Behandlungsdauer, um eine totale Suppression zu erreichen: 5 Tagen
[3]; in vivo
  Hyperstimulationssyndrom: kann nicht auftreten
